Measured values reported in US20040062848A1, “Lapactic agent” (priority 2002, published 2004).

Experiment: Acute toxicity (LD50)
Details: in vivo

## ε-polylysine hydrochloride
  acute toxicity in LD50: ≥ 5000 mg/kg
